Measurements from ChEMBL document CHEMBL1201862, “PubChem BioAssay data set” (2004).
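1) Cells in 96-well plates. 2) Compound, 48 h, 5 concentrations. 3) Linear interpolation between surrounding doses. 4) Unreached endpoint = highest concentration. GI50: concentration for 50% inhibition of growth.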 Active and inactive are the calls of the source. No stated cut-off is given here; in the data, active = GI50 up to about 1.1 µM and inactive = higher.

How the values were obtained:
Assay in all cases: NCI-60 cell line screen, 48 h
OVCAR-8 = tested on: OVCAR-8
ACHN = tested on: ACHN
SW-620 = tested on: SW-620
OVCAR-5 = tested on: OVCAR-5
SNB-19 = tested on: SNB-19
A549 = tested on: A549
EKVX = tested on: EKVX
SNB-75 = tested on: SNB-75
HT-29 = tested on: HT-29
HCT-116 = tested on: HCT-116
TK-10 = tested on: TK-10
IGROV-1 = tested on: IGROV-1
MDA-MB-231 = tested on: MDA-MB-231
CAKI-1 = tested on: CAKI-1
786-0 = tested on: 786-0
RXF 393 = tested on: RXF 393
T47D = tested on: T47D
SR = tested on: SR
NCI-H226 = tested on: NCI-H226

Row | SMILES | GI50 (OVCAR-8) | GI50 (ACHN) | GI50 (SW-620) | GI50 (OVCAR-5) | GI50 (SNB-19) | GI50 (A549) | GI50 (EKVX) | GI50 (SNB-75) | GI50 (HT-29) | GI50 (HCT-116) | GI50 (TK-10) | GI50 (IGROV-1) | GI50 (MDA-MB-231) | GI50 (CAKI-1) | GI50 (786-0) | GI50 (RXF 393) | GI50 (T47D) | GI50 (SR) | GI50 (NCI-H226)
1 | COP(=O)(/C=C/c1cc(C(=O)OCc2ccccc2)n(S(=O)(=O)c2ccccc2)c1)OC | > 100 µM (inactive) | > 100 µM (inactive) | > 100 µM (inactive) | > 100 µM (inactive) | > 100 µM (inactive) | > 100 µM (inactive) | > 100 µM (inactive) | 57.1 µM (inactive) | > 100 µM (inactive) | > 100 µM (inactive) | > 100 µM (inactive) | > 100 µM (inactive) | > 100 µM (inactive) | > 100 µM (inactive) | > 100 µM (inactive) | > 100 µM (inactive) | > 100 µM (inactive) | > 10 µM (inactive) | –
2 | CC1=NN(c2ccc(S(=O)(=O)O)cc2)C2(C1)SCC(=O)N2c1nc2ccccc2s1 (stereo unspecified) | > 100 µM (inactive) | > 100 µM (inactive) | > 100 µM (inactive) | > 100 µM (inactive) | > 100 µM (inactive) | > 100 µM (inactive) | > 100 µM (inactive) | > 100 µM (inactive) | > 100 µM (inactive) | > 100 µM (inactive) | > 100 µM (inactive) | > 100 µM (inactive) | > 100 µM (inactive) | > 100 µM (inactive) | > 100 µM (inactive) | > 100 µM (inactive) | > 100 µM (inactive) | – | > 100 µM (inactive)
3 | COc1cccc2c1OC1c3ccccc3OCC1(O)C2 (stereo unspecified) | > 100 µM (inactive) | > 100 µM (inactive) | > 100 µM (inactive) | > 100 µM (inactive) | – | > 100 µM (inactive) | > 100 µM (inactive) | > 100 µM (inactive) | > 100 µM (inactive) | > 100 µM (inactive) | > 100 µM (inactive) | > 100 µM (inactive) | > 100 µM (inactive) | > 100 µM (inactive) | > 100 µM (inactive) | – | > 100 µM (inactive) | – | > 100 µM (inactive)
4 | CN(Cc1cnc2nc(N)nc(N)c2n1)c1ccc(C(=O)NC(CCC(=O)O)C(=O)O)cc1C(F)(F)F (stereo unspecified) | < 0.01 µM (active) | < 0.01 µM (active) | < 0.01 µM (active) | < 0.01 µM (active) | – | < 0.01 µM (active) | > 27 µM (inactive) | > 100 µM (inactive) | < 0.01 µM (active) | – | > 78.3 µM (inactive) | < 0.01 µM (active) | > 23.1 µM (inactive) | < 0.01 µM (active) | – | > 100 µM (inactive) | > 100 µM (inactive) | < 0.01 µM (active) | –
5 | CC(=O)/C(=C/NC(=S)N/N=C1\C(=O)Nc2ccccc21)C(=O)Nc1ccccc1C | > 100 µM (inactive) | 96.2 µM (inactive) | > 100 µM (inactive) | > 100 µM (inactive) | > 100 µM (inactive) | > 100 µM (inactive) | 70.6 µM (inactive) | 52.4 µM (inactive) | > 100 µM (inactive) | 95.3 µM (inactive) | > 100 µM (inactive) | 95.3 µM (inactive) | 91.6 µM (inactive) | 47.4 µM (inactive) | 82.2 µM (inactive) | 83.8 µM (inactive) | 27.5 µM (inactive) | – | > 100 µM (inactive)
6 | CCOC(=O)C(Cc1ccc(OC(=O)c2ccc(OC)cc2OC)cc1)NC(=O)C(F)(F)F (stereo unspecified) | 22.8 µM (inactive) | 17.2 µM (inactive) | > 100 µM (inactive) | > 100 µM (inactive) | 33.6 µM (inactive) | 36.2 µM (inactive) | 21.4 µM (inactive) | 16.4 µM (inactive) | 20.7 µM (inactive) | 34.1 µM (inactive) | 22.2 µM (inactive) | 19.2 µM (inactive) | 57.7 µM (inactive) | 29 µM (inactive) | 31.9 µM (inactive) | 19.6 µM (inactive) | 23.8 µM (inactive) | – | 65.2 µM (inactive)
7 | CCOc1ncn(-c2ccc(NC(=S)Nc3cnccn3)cc2)n1 | > 10 µM (inactive) | > 10 µM (inactive) | – | > 10 µM (inactive) | > 10 µM (inactive) | > 10 µM (inactive) | > 10 µM (inactive) | > 10 µM (inactive) | > 10 µM (inactive) | – | > 10 µM (inactive) | > 10 µM (inactive) | > 10 µM (inactive) | – | > 10 µM (inactive) | > 10 µM (inactive) | > 10 µM (inactive) | > 10 µM (inactive) | > 10 µM (inactive)
8 | O/N=N\c1nc(-c2cccnc2)nc2ccccc12 | > 100 µM (inactive) | > 100 µM (inactive) | > 100 µM (inactive) | > 100 µM (inactive) | > 100 µM (inactive) | > 100 µM (inactive) | > 100 µM (inactive) | 33.3 µM (inactive) | 47.8 µM (inactive) | > 100 µM (inactive) | > 100 µM (inactive) | > 100 µM (inactive) | > 100 µM (inactive) | > 100 µM (inactive) | > 100 µM (inactive) | – | > 100 µM (inactive) | – | > 100 µM (inactive)
9 | Cc1ccc(OCC2OC(n3cnc4nc(Nc5ccc(Cl)c(Cl)c5)nc(Cl)c43)CC2Oc2ccc(C)cc2)cc1 (stereo unspecified) | > 100 µM (inactive) | > 100 µM (inactive) | > 100 µM (inactive) | > 100 µM (inactive) | > 100 µM (inactive) | > 100 µM (inactive) | 53.7 µM (inactive) | > 100 µM (inactive) | > 100 µM (inactive) | > 100 µM (inactive) | > 100 µM (inactive) | 0.855 µM (active) | > 100 µM (inactive) | > 100 µM (inactive) | > 100 µM (inactive) | > 100 µM (inactive) | > 100 µM (inactive) | – | 46.9 µM (inactive)
10 | COC(=O)CC[N+]1=CCC(c2ccccc2)(c2ccccc2)O1 | > 100 µM (inactive) | > 100 µM (inactive) | > 100 µM (inactive) | > 100 µM (inactive) | > 100 µM (inactive) | > 100 µM (inactive) | > 100 µM (inactive) | – | > 100 µM (inactive) | > 100 µM (inactive) | > 100 µM (inactive) | > 100 µM (inactive) | > 100 µM (inactive) | > 100 µM (inactive) | > 100 µM (inactive) | > 100 µM (inactive) | > 100 µM (inactive) | – | > 100 µM (inactive)
11 | CCOP(=O)(OCC)C(N)c1ccc(Cl)cc1 (stereo unspecified) | > 100 µM (inactive) | > 100 µM (inactive) | > 100 µM (inactive) | > 100 µM (inactive) | > 100 µM (inactive) | > 100 µM (inactive) | > 100 µM (inactive) | – | > 100 µM (inactive) | > 100 µM (inactive) | > 100 µM (inactive) | > 100 µM (inactive) | > 100 µM (inactive) | > 100 µM (inactive) | > 100 µM (inactive) | – | > 100 µM (inactive) | – | –
12 | COc1ccc(N2C(=O)C3c4[nH]c5ccc(OC)cc5c4C4CCC(C(C)C)CC4C3C2=O)cc1 (stereo unspecified) | > 29.4 µM (inactive) | > 100 µM (inactive) | > 75.3 µM (inactive) | > 100 µM (inactive) | 35.6 µM (inactive) | > 72.4 µM (inactive) | > 93.3 µM (inactive) | 17.7 µM (inactive) | > 100 µM (inactive) | > 55.3 µM (inactive) | > 100 µM (inactive) | > 38 µM (inactive) | 30.4 µM (inactive) | > 100 µM (inactive) | 14.9 µM (inactive) | 31 µM (inactive) | > 100 µM (inactive) | – | > 100 µM (inactive)
13 | Cc1nc(N)c(N2CCN(CN)CC2)c(O)n1 | > 100 µM (inactive) | > 100 µM (inactive) | > 100 µM (inactive) | > 100 µM (inactive) | > 100 µM (inactive) | > 100 µM (inactive) | > 100 µM (inactive) | > 100 µM (inactive) | > 100 µM (inactive) | > 100 µM (inactive) | > 100 µM (inactive) | – | > 100 µM (inactive) | – | > 100 µM (inactive) | – | > 100 µM (inactive) | > 100 µM (inactive) | > 100 µM (inactive)
14 | CO/N=C(/C(=O)OC)c1ccccc1COc1cccc(C(F)(F)F)c1 | – | 33.3 µM (inactive) | 42.5 µM (inactive) | 76.2 µM (inactive) | 71.4 µM (inactive) | 38.1 µM (inactive) | 7.62 µM (inactive) | 31.7 µM (inactive) | 46.9 µM (inactive) | 10.8 µM (inactive) | 11.4 µM (inactive) | 30.2 µM (inactive) | 72.8 µM (inactive) | 12.1 µM (inactive) | 30.7 µM (inactive) | 26.4 µM (inactive) | 9.55 µM (inactive) | – | 29.4 µM (inactive)
15 | O=C(/C=C/c1cccs1)c1ccc(Cl)cc1 | 90.4 µM (inactive) | > 100 µM (inactive) | 28.8 µM (inactive) | > 100 µM (inactive) | > 100 µM (inactive) | > 100 µM (inactive) | > 100 µM (inactive) | > 100 µM (inactive) | 39.7 µM (inactive) | 41.5 µM (inactive) | > 100 µM (inactive) | > 100 µM (inactive) | > 100 µM (inactive) | – | 55.7 µM (inactive) | – | 56.1 µM (inactive) | 28.1 µM (inactive) | 67.8 µM (inactive)
16 | CCCCCCCSCC(O)COC(c1ccccc1)(c1ccccc1)c1ccccc1 (stereo unspecified) | 61.8 µM (inactive) | 25.5 µM (inactive) | 78 µM (inactive) | 34.8 µM (inactive) | 76.6 µM (inactive) | 26.7 µM (inactive) | 53 µM (inactive) | – | 19.7 µM (inactive) | 40.6 µM (inactive) | 87.3 µM (inactive) | > 100 µM (inactive) | > 100 µM (inactive) | 60.4 µM (inactive) | 48.8 µM (inactive) | – | 32.7 µM (inactive) | 22.1 µM (inactive) | 18.1 µM (inactive)
